From patent US8148391B2 (Cephalon, Inc., priority 2006, dated 2012)
pIC50: −log10 of the molar value.

Columns and labels:
[1] = biological target: T1, c-Met (cytoplasmic domain) (Homo sapiens, UniProt P08581); experiment: c-Met Kinase Assay (same methods as for ALK, with modifications); type: biochemical; conditions: 1 μM ATP (Km level); read-out: cMet Activity (c-Met Kinase Inhibition, IC50)
T1 construct: 10 ng/mL c-Met (cytoplasmic domain, Invitrogen Corporation #PV3143); purchased Invitrogen Corporation PV3143
Summary of the method: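 Plates were coated with phospholipase C-γ substrate (10 μg/mL) in TBS, and the reaction was started with 10 ng/mL c-Met cytoplasmic domain and run 15 min at 37 °C. Phosphoproduct was detected with Eu-N1-labelled PT66 antibody. IC50 came from a variable-slope sigmoidal fit of percent inhibition vs log concentration.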

[2] = biological target: T2, baculovirus-expressed ALK (Homo sapiens, UniProt Q9UM73); experiment: ALK Kinase Assay (ELISA-type, time-resolved fluorescence); type: biochemical; conditions: 1 μM ATP (Km level); read-out: ALK Activity (ALK Kinase Inhibition, IC50)
T2 construct: host or cells: baculovirus expression system
Summary of the method: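 Plates coated with phospholipase C-γ substrate (10 μg/mL in TBS); reaction started with 30 ng/ml ALK and run 15 min at 37° C. Phosphorylated substrate detected with Eu-N1-labeled PT66 antibody. IC50 from sigmoidal variable-slope fit of percent inhibition vs log concentration.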

T2 sequence (Q9UM73 19-1620): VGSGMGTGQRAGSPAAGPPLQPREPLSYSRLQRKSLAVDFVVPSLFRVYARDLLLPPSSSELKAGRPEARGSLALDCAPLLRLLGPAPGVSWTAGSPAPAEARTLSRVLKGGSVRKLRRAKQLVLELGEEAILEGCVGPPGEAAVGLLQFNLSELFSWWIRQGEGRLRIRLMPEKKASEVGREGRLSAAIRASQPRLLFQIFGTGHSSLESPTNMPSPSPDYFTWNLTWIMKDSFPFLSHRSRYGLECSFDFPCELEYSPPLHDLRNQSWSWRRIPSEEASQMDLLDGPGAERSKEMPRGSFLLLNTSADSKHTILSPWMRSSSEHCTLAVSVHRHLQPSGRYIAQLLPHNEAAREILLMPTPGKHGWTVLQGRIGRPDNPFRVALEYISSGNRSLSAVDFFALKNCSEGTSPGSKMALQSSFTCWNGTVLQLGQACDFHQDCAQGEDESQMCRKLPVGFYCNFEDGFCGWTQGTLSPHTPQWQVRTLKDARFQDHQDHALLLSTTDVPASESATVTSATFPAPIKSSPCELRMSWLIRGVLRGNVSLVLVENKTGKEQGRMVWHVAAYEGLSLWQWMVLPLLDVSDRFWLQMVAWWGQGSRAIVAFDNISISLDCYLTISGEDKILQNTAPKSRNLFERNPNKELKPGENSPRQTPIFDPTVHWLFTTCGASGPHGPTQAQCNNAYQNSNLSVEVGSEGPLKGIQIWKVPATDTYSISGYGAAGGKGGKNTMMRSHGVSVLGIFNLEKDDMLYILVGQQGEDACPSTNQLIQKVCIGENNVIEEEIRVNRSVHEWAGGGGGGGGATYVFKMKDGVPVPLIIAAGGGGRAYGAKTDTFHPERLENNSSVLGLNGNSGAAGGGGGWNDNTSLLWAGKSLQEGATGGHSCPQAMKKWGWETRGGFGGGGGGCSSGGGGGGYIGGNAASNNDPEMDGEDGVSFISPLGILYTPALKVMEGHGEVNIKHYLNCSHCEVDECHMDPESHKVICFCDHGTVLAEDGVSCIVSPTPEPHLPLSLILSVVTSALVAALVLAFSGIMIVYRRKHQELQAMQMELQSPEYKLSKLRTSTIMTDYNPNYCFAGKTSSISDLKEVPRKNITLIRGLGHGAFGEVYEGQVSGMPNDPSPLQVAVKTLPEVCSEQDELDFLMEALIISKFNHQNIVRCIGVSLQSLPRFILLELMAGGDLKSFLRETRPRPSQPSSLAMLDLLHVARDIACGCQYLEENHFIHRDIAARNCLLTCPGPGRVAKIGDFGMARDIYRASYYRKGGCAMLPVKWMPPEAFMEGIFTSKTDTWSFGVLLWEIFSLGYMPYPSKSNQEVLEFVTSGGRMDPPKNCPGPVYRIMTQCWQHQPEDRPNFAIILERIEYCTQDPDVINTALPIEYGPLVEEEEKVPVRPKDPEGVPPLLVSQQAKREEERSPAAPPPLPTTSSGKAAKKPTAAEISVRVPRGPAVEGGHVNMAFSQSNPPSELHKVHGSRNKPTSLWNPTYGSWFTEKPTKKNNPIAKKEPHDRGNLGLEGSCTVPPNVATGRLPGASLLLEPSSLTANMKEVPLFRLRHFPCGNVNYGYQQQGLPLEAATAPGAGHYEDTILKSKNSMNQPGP
T1 sequence (P08581 956-1390 limits assumed): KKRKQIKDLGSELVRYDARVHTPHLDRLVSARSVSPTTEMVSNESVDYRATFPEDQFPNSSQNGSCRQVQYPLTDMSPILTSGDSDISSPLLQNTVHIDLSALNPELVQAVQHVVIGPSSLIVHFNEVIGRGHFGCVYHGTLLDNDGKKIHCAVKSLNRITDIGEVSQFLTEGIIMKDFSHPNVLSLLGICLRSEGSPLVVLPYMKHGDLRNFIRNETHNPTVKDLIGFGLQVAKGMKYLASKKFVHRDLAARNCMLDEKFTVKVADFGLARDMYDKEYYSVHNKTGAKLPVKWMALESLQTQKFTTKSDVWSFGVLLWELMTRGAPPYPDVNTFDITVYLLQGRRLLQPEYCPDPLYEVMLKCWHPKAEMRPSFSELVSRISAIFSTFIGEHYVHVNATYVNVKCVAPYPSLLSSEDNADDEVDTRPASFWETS

| Compound | pIC50 [1] | pIC50 [2] |
| --- | --- | --- |
| CCN1CCc2ccc(Nc3ncc(Cl)c(Nc4cccc(OCC#N)c4)n3)cc2CC1 [Example 927, {3-[5-Chloro-2-(3-ethyl-2,3,4,5-tetrahydro-1H-benzo[d]azepin-7-ylamino)-pyrimidin-4-ylamino]-phenoxy}-acetonitrile] | 6.00 to 7.00 | > 7.00 |
| CCN1CCc2ccc(Nc3ncc(Cl)c(Nc4ccccc4OCC#N)n3)cc2CC1 [Example 928, {2-[5-Chloro-2-(3-ethyl-2,3,4,5-tetrahydro-1H-benzo[d]azepin-7-ylamino)-pyrimidin-4-ylamino]-phenoxy}-acetonitrile] | > 7.00 | > 7.00 |
| CCCNC(=O)c1ccc(Nc2nc(Nc3ccc4c(c3)CCC(N3CCOCC3)CC4)ncc2Cl)c(OC)c1 (stereo not shown) [Example 929, 4-[5-Chloro-2-(7-morpholin-4-yl-6,7,8,9-tetrahydro-5H-benzocyclohepten-2-ylamino)-pyrimidin-4-ylamino]-3-methoxy-N-propyl-benzamide] | < 5.00 | > 7.00 |
| CC1(C)CCC(=O)Nc2cc(Nc3ncc(Cl)c(Nc4c(F)cccc4OCC#N)n3)ccc21 [Example 930, {2-[5-Chloro-2-(5,5-dimethyl-2-oxo-2,3,4,5-tetrahydro-1H-1-benzazepin-8-ylamino)-pyrimidin-4-ylamino]-3-fluoro-phenoxy}-acetonitrile] | > 7.00 | > 7.00 |
| COCCN1CCc2ccc(Nc3ncc(Cl)c(Nc4c(F)cccc4OCC#N)n3)cc2CC1 [Example 931, (2-{5-Chloro-2-[3-(2-methoxy-ethyl)-2,3,4,5-tetrahydro-1H-3-benzazepin-7-ylamino]-pyrimidin-4-ylamino}-3-fluoro-phenoxy)-acetonitrile] | > 7.00 | > 7.00 |
| COc1cc2c(cc1Nc1ncc(C(F)(F)F)c(Nc3ccccc3S(=O)(=O)C(C)C)n1)CCN(CC(=O)N(C)C)CC2 [Example 932, 2-(7-Methoxy-8-{4-[2-(propane-2-sulfonyl)-phenylamino]-5-trifluoromethyl-pyrimidin-2-ylamino}-1,2,4,5-tetrahydro-3-benzazepin-3-yl)-N,N-dimethyl-acetamide] | < 5.00 | 5.00 to 6.00 |
| COc1cc2c(cc1Nc1ncc(C(F)(F)F)c(N[C@H]3[C@@H](C(N)=O)[C@@H]4C=C[C@H]3C4)n1)CCN(CC(=O)N(C)C)CC2 [Example 933, (1S,2S,3R,4R)-3-[2-(3-Dimethylcarbamoylmethyl-8-methoxy-2,3,4,5-tetrahydro-1H-3-benzazepin-7-ylamino)-5-trifluoromethyl-pyrimidin-4-ylamino]-bicyclo[2.2.1]hept-5-ene-2-carboxylic acid amide] | 5.00 to 6.00 | > 7.00 |
| COCCN1CCc2ccc(Nc3ncc(C(F)(F)F)c(N[C@H]4[C@@H](C(N)=O)[C@@H]5C=C[C@H]4C5)n3)cc2CC1 [Example 934, (1S,2S,3R,4R)-3-{2-[3-(2-Methoxy-ethyl)-2,3,4,5-tetrahydro-1H-3-benzazepin-7-ylamino]-5-trifluoromethyl-pyrimidin-4-ylamino}-bicyclo[2.2.1]hept-5-ene-2-carboxylic acid amide] | > 7.00 | > 7.00 |
| NC(=O)[C@@H]1[C@H](Nc2nc(Nc3ccc4c(c3)CCC(N3CCOCC3)CC4)ncc2C(F)(F)F)[C@H]2C=C[C@@H]1C2 (stereo partly drawn) [Example 935, (1S,2S,3R,4R)-3-[2-(7-Morpholin-4-yl-6,7,8,9-tetrahydro-5H-benzocyclohepten-2-ylamino)-5-trifluoromethyl-pyrimidin-4-ylamino]-bicyclo[2.2.1]hept-5-ene-2-carboxylic acid amide] | > 7.00 | > 7.00 |
| COCCN1CCc2ccc(Nc3ncc(Cl)c(Nc4ccc(OC)c5c4C(=O)N(C)C5)n3)cc2CC1 [Example 936, 7-{5-Chloro-2-[3-(2-methoxy-ethyl)-2,3,4,5-tetrahydro-1H-3-benzazepin-7-ylamino]-pyrimidin-4-ylamino}-4-methoxy-2-methyl-2,3-dihydro-isoindol-1-one] | 6.00 to 7.00 | > 7.00 |
| COc1cc2c(cc1Nc1ncc(Cl)c(Nc3ccc(OC)c4c3C(=O)N(C)C4)n1)CCN(CC(=O)N(C)C)CC2 [Example 937, 2-{7-[5-Chloro-4-(7-methoxy-2-methyl-3-oxo-2,3-dihydro-1H-isoindol-4-ylamino)-pyrimidin-2-ylamino]-8-methoxy-1,2,4,5-tetrahydro-3-benzazepin-3-yl}-N,N-dimethyl-acetamide] | < 5.00 | > 7.00 |
| COc1ccc(Nc2nc(Nc3ccc4c(c3)CCC(O)CC4)ncc2Cl)c2c1CN(C)C2=O (stereo not shown) [Example 938, 7-[5-Chloro-2-(7-hydroxy-6,7,8,9-tetrahydro-5H-benzocyclohepten-2-ylamino)-pyrimidin-4-ylamino]-4-methoxy-2-methyl-2,3-dihydro-isoindol-1-one] | 5.00 to 6.00 | 6.00 to 7.00 |
| COc1ccc(Nc2nc(Nc3ccc4c(c3)CCC(N3CCOCC3)CC4)ncc2Cl)c2c1CN(C)C2=O (stereo not shown) [Example 939, 7-[5-Chloro-2-(7-morpholin-4-yl-6,7,8,9-tetrahydro-5H-benzocyclohepten-2-ylamino)-pyrimidin-4-ylamino]-4-methoxy-2-methyl-2,3-dihydro-isoindol-1-one] | 5.00 to 6.00 | > 7.00 |
| COc1c(Nc2ncc(Cl)c(Nc3ccccc3S(=O)(=O)N(C)C)n2)ccc2c1CCCC(N1CCOCC1)C2 (stereo not shown) [Example 944, 2-[5-Chloro-2-(1-methoxy-6-morpholin-4-yl-6,7,8,9-tetrahydro-5H-benzocyclohepten-2-ylamino)-pyrimidin-4-ylamino]-N,N-dimethyl-benzenesulfonamide] | < 5.00 | > 7.00 |
| COc1ccc(Nc2ncc(Cl)c(Nc3ccccc3S(=O)(=O)N(C)C)n2)c2c1CCCC(N1CCOCC1)C2 (stereo not shown) [Example 945, 2-[5-Chloro-2-(4-methoxy-8-morpholin-4-yl-6,7,8,9-tetrahydro-5H-benzocyclohepten-1-ylamino)-pyrimidin-4-ylamino]-N,N-dimethyl-benzenesulfonamide] | < 5.00 | 5.00 to 6.00 |
| COc1ccc(Nc2ncc(Cl)c(Nc3ccccc3S(=O)(=O)C(C)C)n2)c2c1CCCC(N1CCOCC1)C2 (stereo not shown) [Example 946, 5-Chloro-N(2)-(4-methoxy-8-morpholin-4-yl-6,7,8,9-tetrahydro-5H-benzocyclohepten-1-yl)-N(4)-[2-(propane-2-sulfonyl)-phenyl]-pyrimidine-2,4-diamine] | < 5.00 | 6.00 to 7.00 |
| COc1c(Nc2ncc(Cl)c(Nc3ccccc3S(=O)(=O)C(C)C)n2)ccc2c1CCCC(N1CCOCC1)C2 (stereo not shown) [Example 947, 5-Chloro-N(2)-(1-methoxy-6-morpholin-4-yl-6,7,8,9-tetrahydro-5H-benzocyclohepten-2-yl)-N(4)-[2-(propane-2-sulfonyl)-phenyl]-pyrimidine-2,4-diamine] | < 5.00 | > 7.00 |
| COc1c(Nc2ncc(Cl)c(Nc3ccccc3C(=O)OC(C)C)n2)ccc2c1CCCC(N1CCOCC1)C2 (stereo not shown) [Example 948, 2-[5-Chloro-2-(1-methoxy-6-morpholin-4-yl-6,7,8,9-tetrahydro-5H-benzocyclohepten-2-ylamino)-pyrimidin-4-ylamino]-benzoic acid isopropyl ester] | < 5.00 | 6.00 to 7.00 |
| COc1c(Nc2ncc(Cl)c(N[C@@H]3CCCC[C@H]3NS(C)(=O)=O)n2)ccc2c1CCCC(N1CCOCC1)C2 (stereo partly drawn) [Example 949, N-{(1R,2R)-2-[5-Chloro-2-(1-methoxy-6-morpholin-4-yl-6,7,8,9-tetrahydro-5H-benzocyclohepten-2-ylamino)-pyrimidin-4-ylamino]-cyclohexyl}-methanesulfonamide] | < 5.00 | > 7.00 |
| COCCN1CCc2ccc(Nc3ncc(Cl)c(Nc4ccc(N5CCN(C(C)C)CC5)c5c4C(=O)N(C)C5)n3)cc2CC1 [Example 950, 7-{5-Chloro-2-[3-(2-methoxy-ethyl)-2,3,4,5-tetrahydro-1H-3-benzazepin-7-ylamino]-pyrimidin-4-ylamino}-4-(4-isopropyl-piperazin-1-yl)-2-methyl-2,3-dihydro-isoindol-1-one] | 6.00 to 7.00 | > 7.00 |
| COc1cc2c(cc1Nc1ncc(Cl)c(Nc3ccc(N4CCN(C(C)C)CC4)c4c3C(=O)N(C)C4)n1)CCN(CC(=O)N(C)C)CC2 [Example 951, 2-(7-{5-Chloro-4-[7-(4-isopropyl-piperazin-1-yl)-2-methyl-3-oxo-2,3-dihydro-1H-isoindol-4-ylamino]-pyrimidin-2-ylamino}-8-methoxy-1,2,4,5-tetrahydro-3-benzazepin-3-yl)-N,N-dimethyl-acetamide] | < 5.00 | > 7.00 |
| COc1cc(N2CCOCC2)ccc1Nc1nc(Nc2ccc3c(c2OC)CCCC(N2CCOCC2)C3)ncc1Cl (stereo not shown) [Example 952, 5-Chloro-N(4)-(2-methoxy-4-morpholin-4-yl-phenyl)-N(2)-(1-methoxy-6-morpholin-4-yl-6,7,8,9-tetrahydro-5H-benzocyclohepten-2-yl)-pyrimidine-2,4-diamine] | < 5.00 | > 7.00 |
| COc1cc2c(cc1Nc1ncc(Cl)c(Nc3ccc(N4CCN(C(C)C)CC4)c4c3C(=O)N(C)C4)n1)CCN(CCO)CC2 [Example 953, 7-{5-Chloro-2-[3-(2-hydroxy-ethyl)-8-methoxy-2,3,4,5-tetrahydro-1H-3-benzazepin-7-ylamino]-pyrimidin-4-ylamino}-4-(4-isopropyl-piperazin-1-yl)-2-methyl-2,3-dihydro-isoindol-1-one] | < 5.00 | > 7.00 |
